1 compound from patent US10092620B2, “Uses of cyclic peptides for treating and preventing atherosclerosis” (THE SCRIPPS RESEARCH INSTITUTE, priority 2013, dated 2018) can be followed below.

The subject of data set [1] is mouse macrophage J774 cells. The data set is described as follows: cholesterol efflux from mouse macrophage cells incubated with peptide-treated human plasma. Format: cell-based. Here is the method:
Selected cyclic D,L-α-peptides were further evaluated for their ability to promote cellular cholesterol efflux from mouse macrophage J774 cells. A main factor for HDL anti-atherogenicity is its role in reverse cholesterol transport, of which cellular cholesterol efflux is a critical component. To measure efflux mediated by the cyclic D,L-α-peptides, cholesterol-laden cells were incubated with peptide-treated plasma for 4 h, after which the level of cholesterol effluxed to the media was measured as described in Sankaranarayanan et al., J. Lipid Res. 52, 2332-2340, 2011.
Preparation of labeling medium: These procedures were modified from that reported in Sankaranarayanan et al., J. Lipid Res. 52, 2332-2340, 2011. The labeling medium was prepared by complexing the unlabeled cholesterol and BODIPY-cholesterol (20% of the total cholesterol) with methyl-β-cyclodextrin (CD) at a molar ratio of 1:40 (total cholesterol/CD). Unlabeled cholesterol and BODIPY-cholesterol were dissolved in chloroform and dried in a round bottom flask by rotor-evaporation in the dark to form a thin film. The cholesterol mixture was solubilized by adding 20 mM CD in MEM-HEPES buffer. The suspension was sonicated in a water bath (37° C.) for at 1 h, stirred at 37° C. for 3 h, filtered using a 0.45-μm syringe filter, and diluted with an equal volume of MEM-HEPES buffer containing 4 μg/mL Sandoz ACAT (acyl-CoA:cholesterol acyltransferase) inhibitor (Sigma). The final concentrations of BODIPY-cholesterol, unlabeled cholesterol, CD, and ACAT inhibitor in the labeling medium were 0.025 mM, 0.1 mM, 10 mM, and […], respectively.
Preparation of efflux medium: Just before the initiation of the efflux assays, the human plasma frozen at −80° C. was thawed, and 80 μL of plasma was incubated with 20 μL of cyclic peptide stocks (peptide stocks were 1-3 mg/mL in 10% sucrose) or the vehicle (10% sucrose) at 37° C. for 30 min. The treated plasma samples (100 μL) were then incubated with 25% PEG 8000 solution in 200 mM glycine buffer, pH 8.5 (40 μL) to precipitate apoB-containing lipoproteins (Asztalos et al., J. Lipid Res. 46, 2246-2253, 2005). After a 15-min incubation, the precipitate was removed by high-speed centrifugation (13,000 rpm, 10 min, 4° C.), and the supernatant (60 μL) was immediately diluted with MEM-HEPES buffer (1.5 mL) to give ˜2% whole plasma. This solution, containing the peptide remodeled-HDL lipoprotein fraction as cholesterol acceptors, was used as the efflux medium.
Cholesterol efflux from mouse macrophage cells: Mouse macrophage J774A.1 cells (TIB-67; American Type Culture Collection, Manassas, Va.) were seeded in 12-well culture plate at 3×10^5 cells/mL and cultured to 80-90% confluency in DMEM with 10% FBS at 5% CO2. Cells were rinsed twice with MEM-HEPES, incubated for 1 h with 0.25 ml of labeling medium containing CD/BODIPY-cholesterol/unlabeled cholesterol and 2 μg/mL Sandoz ACAT inhibitor, followed by washing twice with MEM-HEPES. The cholesterol-laden cells were equilibrated for 18 h in DMEM containing 5% LPDS, […] Sandoz ACAT inhibitor, and 0.3 mM Cpt-cAMP. After equilibration, the cells were washed twice with MEM-HEPES and incubated with 0.25 mL of efflux media for 4 h. At the end of the incubation time, the efflux media was removed and centrifuged (1200 rpm, 10 min) to remove floating cells, and the fluorescence intensity of 100 μL cell-free media was recorded using a Tecan GENios plate reader (excitation 485 nm, emission 535 nm). The obtained signals were background subtracted using the signal from unlabeled cells. The cell monolayers were rinsed twice with ice-cold MEM-HEPES and solubilized with 0.25 mL 1% cholic acid by shaking on a plate shaker for at least 4 h at room temperature; then the fluorescence intensity of 100 μL cell lysate was recorded and background subtracted using the signal from unlabeled cell lysate. […]

Data set [2] concerns LDLr-null mice. As to the kind of experiment: plasma lipoprotein and lipoprotein cholesterol profiles (FPLC of pooled plasma). Format: in vivo, mouse. To be noted: 2 weeks oral ~25 mg/kg/day. Here is the method: Effect of cyclic peptides on plasma lipoprotein and lipoprotein cholesterol profiles: Pooled plasma (240 μL total, 30 μL from each, n=8 mice per group) from the two-week blood draw was used for fast protein liquid chromatography (FPLC) analysis. Lipoproteins were separated by using 3 Superdex 200 10/30 columns connected in series (GE Healthcare). The plasma was centrifuged at 11,000 rpm for 10 min at room temperature to remove particulates (floating material was gently mixed into liquid before removing the supernatant for FPLC injection). 200 μL of the pooled plasma was injected on the system eluted with 10 mM tris-HCl buffer, pH 7.4, containing 1 mM EDTA and 150 mM NaCl; a flow rate of 0.5 ml/min and fraction size of 0.5 mL were used. Total cholesterol in the FPLC fractions was measured using the Amplex® red cholesterol assay kit (No. A12216, Life Technologies) according to the manufacturer's instructions. 20 μL of selected HDL fractions (as indicated in FIG. 6) were mixed with 4 μL of 6× native loading buffer (375 mM tris, pH 6.8, 0.06% bromophenol, 60% glycerol), out of which 20 μL was applied to non-denaturing gel electrophoresis and then immunoblotted for mouse apoA-I as described above.

[3] abbreviates: listed as c[wLwReQeR], 25 mg/kg/day.

SMILES strings stand for the structures. “Also recorded” adds a separate entry of the source. Non-standard residues stand in square brackets, D forms with d. Residues, ends and D or L forms follow the SMILES beside them.

As for `CC(C)C[C@@H]1NC(=O)[C@@H](Cc2c[nH]c3ccccc23)NC(=O)[C@H](CCCNC(=N)N)NC(=O)[C@@H](CCC(=O)O)NC(=O)[C@H](CCC(N)=O)NC(=O)[C@@H](CCC(=O)O)NC(=O)[C@H](CCCNC(=N)N)NC(=O)[C@@H](Cc2c[nH]c3ccccc23)NC1=O` [SEQ ID NO:1, c[wLwReQeR]] (cyclo([dW]L[dW]R[dE]Q[dE]R)), in data set [1] (J774 cells in the efflux assay), the “toxicity based on the cellular morphology and density” value was “did not appear to be toxic”. For the same compound, the “promotion of cellular cholesterol efflux (in words)” value in data set [1] (J774 cells, 2% apoB-depleted peptide-treated human plasma, 4 h, FIG. 2b) is “clear concentration dependency; also recorded: only marginally less effective than the α-helical apoA-I mimetic 4F”. The “HDL particle size (FPLC lipoprotein profile)” value is recorded as “remodeled in favor of the smaller HDL particle sizes” in data set [2] (listed as 1, 25 mg/kg/day) and “modest shift to smaller (later eluting) particles” in data set [2] (setting [3]). Besides, the “VLDL and LDL levels (FPLC lipoprotein profile)” value in data set [2] (listed as 1, 25 mg/kg/day) is “reduced levels of VLDL and LDL”; in data set [2] (setting [3]), “decreases in the VLDL and LDL levels”. The “HDL levels (FPLC lipoprotein profile)” value in data set [2] (vs vehicle) was “comparable for both groups”.
